Laboratory results taken from publication PMC7044277 (Nature Communications, 2020).
“And” between values parts separate entries of the source, which are not always exact repeats. Identical values can stand only once.

Experiments:
Assay type in all cases: cell-based
Parameters in all cases: GPCRome screening signal at PTGIR / GPCRome screening signal at PTH1R / GPCRome screening signal at PTH2R / GPCRome screening signal at QRFP / GPCRome screening signal at RXFP2 / GPCRome screening signal at RXFP3 / GPCRome screening signal at RXFP4 / GPCRome screening signal at S1PR2 / GPCRome screening signal at S1PR3 / GPCRome screening signal at S1PR4 / GPCRome screening signal at S1PR5 / GPCRome screening signal at SCTR / GPCRome screening signal at SSTR2 / GPCRome screening signal at SSSTR / GPCRome screening signal at SSTR4 / GPCRome screening signal at SSTR5 / GPCRome screening signal at SUCNR1 / GPCRome screening signal at TA1 / GPCRome screening signal at TAAR2 / GPCRome screening signal at TAAR5 / GPCRome screening signal at TAAR6 / GPCRome screening signal at TAAR8 / GPCRome screening signal at TACR1 / GPCRome screening signal at TACR2 / GPCRome screening signal at TACR3 / GPCRome screening signal at TBXA2R / GPCRome screening signal at TSHR / GPCRome screening signal at UTS2R / GPCRome screening signal at VIPR2 / GPCRome screening signal at GPR68 no V2 Tail / GPCRome screening signal at GRM2 / GPCRome screening signal at GRM3: reference not given here
320 non-olfactory GPCRs [1] = molecular target: T1, 320 non-olfactory GPCRs (Homo sapiens, UniProt Q9BXA5); conditions: receptor SUCNR1
T1 construct: expressed in transfected cells; host or cells: HTLA cells

320 non-olfactory GPCRs [2] = molecular target: T2, 320 non-olfactory GPCRs (Homo sapiens, UniProt Q96RJ0); conditions: receptor TA1
T2 construct: expressed in transfected cells; host or cells: HTLA cells

320 non-olfactory GPCRs [3] = molecular target: T3, 320 non-olfactory GPCRs (Homo sapiens, UniProt P43119); conditions: receptor PTGIR
T3 construct: expressed in transfected cells; host or cells: HTLA cells

320 non-olfactory GPCRs [4] = molecular target: T4, 320 non-olfactory GPCRs (Homo sapiens, UniProt Q9HBX9); conditions: receptor RXFP1
T4 construct: expressed in transfected cells; host or cells: HTLA cells

[5] = Fig_5f, single replicate values
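For GPCRome agonism screen response in this document: fold over basal response of each receptor without drug.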

T4 sequence (Q9HBX9 whole entry): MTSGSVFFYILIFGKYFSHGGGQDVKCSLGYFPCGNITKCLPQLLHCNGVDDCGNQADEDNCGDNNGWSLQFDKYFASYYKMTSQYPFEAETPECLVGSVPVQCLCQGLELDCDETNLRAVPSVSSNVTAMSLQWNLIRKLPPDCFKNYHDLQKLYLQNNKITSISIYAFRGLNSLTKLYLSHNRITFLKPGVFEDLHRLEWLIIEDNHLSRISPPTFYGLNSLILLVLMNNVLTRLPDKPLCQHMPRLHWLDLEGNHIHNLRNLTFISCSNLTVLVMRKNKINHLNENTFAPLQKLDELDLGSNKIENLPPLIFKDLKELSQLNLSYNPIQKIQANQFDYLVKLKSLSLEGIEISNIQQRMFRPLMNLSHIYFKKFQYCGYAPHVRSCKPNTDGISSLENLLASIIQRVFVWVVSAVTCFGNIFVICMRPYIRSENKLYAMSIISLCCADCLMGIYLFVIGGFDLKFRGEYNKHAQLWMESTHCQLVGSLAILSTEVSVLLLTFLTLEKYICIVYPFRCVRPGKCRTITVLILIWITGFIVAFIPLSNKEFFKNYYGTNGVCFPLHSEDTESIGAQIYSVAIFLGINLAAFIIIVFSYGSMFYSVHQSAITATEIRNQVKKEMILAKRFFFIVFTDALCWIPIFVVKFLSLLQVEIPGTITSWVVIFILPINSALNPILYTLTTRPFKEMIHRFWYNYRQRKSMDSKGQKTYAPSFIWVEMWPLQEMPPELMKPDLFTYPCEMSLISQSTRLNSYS
T2 sequence (Q96RJ0 whole entry): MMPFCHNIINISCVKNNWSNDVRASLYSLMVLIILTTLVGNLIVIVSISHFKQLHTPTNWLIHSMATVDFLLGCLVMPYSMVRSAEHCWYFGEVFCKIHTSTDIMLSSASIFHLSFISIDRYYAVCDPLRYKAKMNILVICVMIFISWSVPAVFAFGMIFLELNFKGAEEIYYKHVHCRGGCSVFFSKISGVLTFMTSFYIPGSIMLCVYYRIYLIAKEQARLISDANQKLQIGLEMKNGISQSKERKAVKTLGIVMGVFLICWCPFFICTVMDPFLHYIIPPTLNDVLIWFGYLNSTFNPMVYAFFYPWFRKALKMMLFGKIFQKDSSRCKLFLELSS
T3 sequence (P43119 whole entry): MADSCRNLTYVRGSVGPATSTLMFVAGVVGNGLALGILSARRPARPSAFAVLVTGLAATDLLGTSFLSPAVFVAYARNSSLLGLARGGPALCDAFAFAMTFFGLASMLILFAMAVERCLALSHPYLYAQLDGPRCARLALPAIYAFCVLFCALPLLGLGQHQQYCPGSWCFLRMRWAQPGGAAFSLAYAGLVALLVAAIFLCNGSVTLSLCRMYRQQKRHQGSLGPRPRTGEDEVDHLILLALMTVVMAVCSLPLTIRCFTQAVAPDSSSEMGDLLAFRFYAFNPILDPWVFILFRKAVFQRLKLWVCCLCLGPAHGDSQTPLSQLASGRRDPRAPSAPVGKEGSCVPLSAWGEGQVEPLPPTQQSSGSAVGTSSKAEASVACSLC
T1 sequence (Q9BXA5 whole entry): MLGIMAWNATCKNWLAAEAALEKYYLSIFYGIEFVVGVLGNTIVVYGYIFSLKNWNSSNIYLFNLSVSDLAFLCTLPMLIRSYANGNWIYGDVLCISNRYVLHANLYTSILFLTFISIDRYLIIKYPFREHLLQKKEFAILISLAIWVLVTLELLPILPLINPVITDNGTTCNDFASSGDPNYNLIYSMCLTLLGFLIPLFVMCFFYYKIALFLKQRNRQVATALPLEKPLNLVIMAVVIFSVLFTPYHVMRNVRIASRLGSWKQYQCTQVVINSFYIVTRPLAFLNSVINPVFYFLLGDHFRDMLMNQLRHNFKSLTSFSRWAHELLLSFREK

Row | Structure (SMILES) | GPCRome screening signal at SUCNR1 (320 non-olfactory GPCRs [1]; [5]) | GPCRome screening signal at TA1 (320 non-olfactory GPCRs [2]; [5]) | GPCRome screening signal at PTGIR (320 non-olfactory GPCRs [3]; [5]) | GPCRome screening signal at RXFP1 (320 non-olfactory GPCRs [4]; [5]) | GPCRome agonism screen response (320 non-olfactory GPCRs [1]; replicate values, Fig_4g) | GPCRome agonism screen response (320 non-olfactory GPCRs [2]; replicate values, Fig_4g) | GPCRome agonism screen response (320 non-olfactory GPCRs [3]; replicate values, Fig_4g) | GPCRome agonism screen response (320 non-olfactory GPCRs [4]; replicate values, Fig_4g)
1 | CCOc1ccccc1CCC(C)NCC1(O)CCCCC1.Cl (racemic) [Fig_5f] | 2.588 and 2.79 and 1.592 and 0.9771 | 0.8481 and 0.8735 and 0.8675 and 0.7534 | 0.4707 and 0.7235 and 1.819 and 1.564 | 1.526 and 1.245 and 1.665 and 0.7058 |  |  |  | 
2 | CCOc1cccc2cc(C(C)NCC3(O)CCCCC3)oc12 (centres unmarked) [O4LE6] |  |  |  |  | 2.7145 and 1.744 and 1.03 and 1.189 | 0.6778 and 0.9948 and 0.7841 and 0.8752 | 1.654 and 0.8806 and 0.8629 and 1.301 | 1.294 and 0.8675 and 1.5976 and 1.234
